# According to ChEMBL document CHEMBL4715689, “Novel PTP1B inhibitors identified by DNA display of fragment pairs” (Bioorg Med Chem Lett, 2016):
# Active and inactive are the calls of the source. The calls are words filed in the database; no cut-off is given here.
# What was measured:
# BT-474 = experiment: Growth inhibition of human BT474 cells assessed as reduction in cell viability after 48 hrs by MTT assay; type: functional
# [1] = molecular target: T1, Tyrosine-protein phosphatase non-receptor type 1 (Homo sapiens, UniProt P18031)
# T1 sequence (P18031 whole entry): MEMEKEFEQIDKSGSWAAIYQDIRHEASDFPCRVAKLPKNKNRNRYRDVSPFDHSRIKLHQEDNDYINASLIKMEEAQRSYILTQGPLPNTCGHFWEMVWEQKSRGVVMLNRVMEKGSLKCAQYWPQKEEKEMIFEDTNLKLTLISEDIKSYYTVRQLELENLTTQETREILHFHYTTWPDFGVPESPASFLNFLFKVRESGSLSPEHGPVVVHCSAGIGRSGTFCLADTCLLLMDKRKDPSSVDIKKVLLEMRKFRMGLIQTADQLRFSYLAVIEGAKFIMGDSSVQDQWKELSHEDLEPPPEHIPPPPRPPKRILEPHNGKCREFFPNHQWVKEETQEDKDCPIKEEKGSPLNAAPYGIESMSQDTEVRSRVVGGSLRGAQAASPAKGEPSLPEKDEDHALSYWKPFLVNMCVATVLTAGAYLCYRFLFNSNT
# Description: Binding affinity to N-terminal GST-tagged recombinant human PTP1B (1 to 321 residues) expressed in Escherichia coli assessed as dissociation constant and measured for 120 sec by biolayer interferometry
# [2] = molecular target: T1, Tyrosine-protein phosphatase non-receptor type 1; remark: listed apart in the source
# Description: Inhibition of N-terminal GST-tagged recombinant human PTP1B (1 to 321 residues) expressed in Escherichia coli using DifMup as substrate preincubated for 30 mins followed by substrate addition and measured immediately
# [3] = molecular target: T2, Tyrosine-protein phosphatase non-receptor type 2 (Homo sapiens, UniProt P17706); experiment: Inhibition of recombinant human TCPTP (1 to 317 residues) expressed in Escherichia coli using DifMup as substrate preincubated for 30 mins followed by substrate addition and measured immediately
# T2 sequence (P17706 whole entry): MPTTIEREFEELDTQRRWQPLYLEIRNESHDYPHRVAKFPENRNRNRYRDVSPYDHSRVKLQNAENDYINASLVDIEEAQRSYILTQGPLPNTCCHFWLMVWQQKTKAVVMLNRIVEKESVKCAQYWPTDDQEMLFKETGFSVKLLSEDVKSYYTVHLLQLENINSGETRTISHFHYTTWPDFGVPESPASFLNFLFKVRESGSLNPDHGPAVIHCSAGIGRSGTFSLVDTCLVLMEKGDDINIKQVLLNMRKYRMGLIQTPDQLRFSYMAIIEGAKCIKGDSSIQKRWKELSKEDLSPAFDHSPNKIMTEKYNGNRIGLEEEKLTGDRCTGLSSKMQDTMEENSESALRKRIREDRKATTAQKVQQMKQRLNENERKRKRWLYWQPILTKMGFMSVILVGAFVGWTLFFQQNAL
Kd [1],Ki [2],Ki [3],GI50 (BT-474),SMILES,Activity (BT-474)
270 nM,1200 nM,> 100000 nM,,CCCCC(NC1=NS(=O)(=O)c2ccccc21)C(=O)NCC(NC(=O)c1ccccc1NC(=O)c1n[nH]c2ccc([N+](=O)[O-])cc12)C(=O)NC(CCCCNC(=O)CCCC[C@@H]1SCC2NC(=O)NC21)C(N)=O (some centres undefined),inactive
220 nM,2900 nM,7010 nM,,CCCCC(NC1=NS(=O)(=O)c2ccccc21)C(=O)NCC(NC(=O)COCCOCCNC(=O)C(C1CC1)n1cc(-c2cccc(OC)c2)nn1)C(N)=O (centres undefined),
100 nM,3500 nM,6200 nM,,CC(C)C(NC1=NS(=O)(=O)c2ccccc21)C(=O)NC[C@@H](NC(=O)CC1(NC(=O)[C@H](CC(C)(C)C)n2cc(CC3CCCCC3)nn2)CCCCC1)C(=O)NC(CCCCNC(=O)CCCC[C@@H]1SCC2NC(=O)NC21)C(N)=O (some centres undefined),
90 nM,3100 nM,12200 nM,,CCCCC(NC1=NS(=O)(=O)c2ccccc21)C(=O)NC[C@@H](NC(=O)C1CCCC(NC(=O)[C@H](CC(C)(C)C)n2cc(CC3CCCCC3)nn2)C1)C(=O)NC(CCCCNC(=O)CCCC[C@@H]1SCC2NC(=O)NC21)C(N)=O (some centres undefined),
90 nM,3100 nM,12200 nM,,CCCCC(NC1=NS(=O)(=O)c2ccccc21)C(=O)NC[C@@H](NC(=O)C1CCCC(NC(=O)[C@H](CC(C)(C)C)n2cc(CC3CCCCC3)nn2)C1)C(N)=O (some centres undefined),
120 nM,16800 nM,2700 nM,,CCCCC(NC1=NS(=O)(=O)c2ccccc21)C(=O)NCC(NC(=O)CC1(NC(=O)C(C2CC2)n2cc(CC3CCCCC3)nn2)CCCCC1)C(=O)NC(CCCCNC(=O)CCCC[C@@H]1SCC2NC(=O)NC21)C(N)=O (some centres undefined),
110 nM,6800 nM,3010 nM,,NC(=O)C(CNC(=O)CCCCCNC1=NS(=O)(=O)c2ccccc21)NC(=O)Cc1ccc(CNC(=O)[C@H](C2CC2)n2cc(CC3CCCCC3)nn2)cc1 (some centres undefined),
240 nM,3400 nM,800 nM,,CCC(C)C(NC1=NS(=O)(=O)c2ccccc21)C(=O)NC[C@@H](NC(=O)C1CCCC(NC(=O)C(C2CC2)n2cc(CC3CCCCC3)nn2)C1)C(N)=O (some centres undefined),
270 nM,1200 nM,> 100000 nM,,CCCCC(NC1=NS(=O)(=O)c2ccccc21)C(=O)NCC(NC(=O)c1ccccc1NC(=O)c1n[nH]c2ccc([N+](=O)[O-])cc12)C(N)=O (centres undefined),inactive
210 nM,2200 nM,7600 nM,,CCCCC(NC1=NS(=O)(=O)c2ccccc21)C(=O)NC[C@@H](NC(=O)C1(NC(=O)[C@H](CC(C)(C)C)n2cc(CC3CCCCC3)nn2)CC1)C(=O)NC(CCCCNC(=O)CCCC[C@@H]1SCC2NC(=O)NC21)C(N)=O (some centres undefined),
50 nM,250 nM,> 20000 nM,,CC(C)C(NC1=NS(=O)(=O)c2ccccc21)C(=O)NCC(NC(=O)c1n[nH]c2ccc([N+](=O)[O-])cc12)C(=O)NC(CCCCNC(=O)CCCC[C@@H]1SCC2NC(=O)NC21)C(N)=O (some centres undefined),inactive
290 nM,1700 nM,> 100000 nM,900 nM,CCC(C)C(NC1=NS(=O)(=O)c2ccccc21)C(=O)NC[C@@H](NC(=O)CC1(NC(=O)[C@H](CC(C)(C)C)n2cc(CC3CCCCC3)nn2)CCCCC1)C(N)=O (some centres undefined),
240 nM,3400 nM,800 nM,,CCC(C)C(NC1=NS(=O)(=O)c2ccccc21)C(=O)NC[C@@H](NC(=O)C1CCCC(NC(=O)C(C2CC2)n2cc(CC3CCCCC3)nn2)C1)C(=O)NC(CCCCNC(=O)CCCC[C@@H]1SCC2NC(=O)NC21)C(N)=O (some centres undefined),
100 nM,3500 nM,6200 nM,,CC(C)C(NC1=NS(=O)(=O)c2ccccc21)C(=O)NC[C@@H](NC(=O)CC1(NC(=O)[C@H](CC(C)(C)C)n2cc(CC3CCCCC3)nn2)CCCCC1)C(N)=O (some centres undefined),
290 nM,1700 nM,> 100000 nM,900 nM,CCC(C)C(NC1=NS(=O)(=O)c2ccccc21)C(=O)NC[C@@H](NC(=O)CC1(NC(=O)[C@H](CC(C)(C)C)n2cc(CC3CCCCC3)nn2)CCCCC1)C(=O)NC(CCCCNC(=O)CCCC[C@@H]1SCC2NC(=O)NC21)C(N)=O (some centres undefined),
220 nM,2900 nM,7010 nM,,CCCCC(NC1=NS(=O)(=O)c2ccccc21)C(=O)NCC(NC(=O)COCCOCCNC(=O)C(C1CC1)n1cc(-c2cccc(OC)c2)nn1)C(=O)NC(CCCCNC(=O)CCCC[C@@H]1SCC2NC(=O)NC21)C(N)=O (some centres undefined),
210 nM,2200 nM,7600 nM,,CCCCC(NC1=NS(=O)(=O)c2ccccc21)C(=O)NC[C@@H](NC(=O)C1(NC(=O)[C@H](CC(C)(C)C)n2cc(CC3CCCCC3)nn2)CC1)C(N)=O (some centres undefined),
120 nM,16800 nM,2700 nM,,CCCCC(NC1=NS(=O)(=O)c2ccccc21)C(=O)NCC(NC(=O)CC1(NC(=O)C(C2CC2)n2cc(CC3CCCCC3)nn2)CCCCC1)C(N)=O (centres undefined),
110 nM,6800 nM,3010 nM,,NC(=O)C(CCCCNC(=O)CCCC[C@@H]1SCC2NC(=O)NC21)NC(=O)C(CNC(=O)CCCCCNC1=NS(=O)(=O)c2ccccc21)NC(=O)Cc1ccc(CNC(=O)[C@H](C2CC2)n2cc(CC3CCCCC3)nn2)cc1 (some centres undefined),
,,> 20000 nM,,CC(C)C(NC1=NS(=O)(=O)c2ccccc21)C(=O)NCC(NC(=O)c1n[nH]c2ccc([N+](=O)[O-])cc12)C(N)=O (centres undefined),inactive
